Source: ChEMBL document CHEMBL5584295, “Formononetin Derivative for Osteoporosis by Simultaneous Regulating Osteoblast and Osteoclast” (J Nat Prod, 2024)
Calls of active or inactive are those of the source. No cut-off for these calls is given here.

How the values were obtained:
[1] = system: MSC; assay: Activation of BMP/Smad signaling pathway in Wistar rat bone marrow-derived MSC assessed as increase in bmp5 mRNA expression at 0.4 uM incubated for 14 days by RT-qPCR analysis; format: cell-based; details: filed as activator, time 14.0 day
[2] = system: RAW264.7; assay: Inhibition of RANK/RANKL/OPG signaling pathway in RANKL-stimulated mouse RAW264.7 cells assessed as increase in c-Jun protein expression level at 1 uM after 5 days by Western blot analysis; format: cell-based; details: time 5.0 day
[3] = system: Mus musculus; assay: Anti-osteoporosis activity in OVX-induced osteoporosis ICR mouse model assessed as increase in BV/TV by measuring fold change in femur at 20 mg/kg, IG and measured after 12 weeks by micro-CT analysis; format: functional
[4] = system: MSC; assay: Induction of osteogenesis in Wistar rat bone marrow-derived MSC assessed as increase in ALP at 0.4 uM measured after 1 week with fresh culture medium replacement for every 3 days by ALP staining based analysis; format: functional, cell-based; details: time 1.0 weeks
[5] = system: RAW264.7; assay: Inhibition of RANK/RANKL/OPG signaling pathway in mouse RAW264.7 cells assessed as decrease in RANKL-stimulated RANK protein expression level at 1 uM after 5 days by Western blot analysis; format: cell-based; details: time 5.0 day
[6] = system: RAW264.7; assay: Cytotoxicity against mouse RAW264.7 cells assessed as reduction in cell viability at 1 to 10 uM after 72 hrs by MTS assay; format: toxicity, cell-based; details: raw264.7, 72 h, dose 1-10 µM
[7] = system: MSC; assay: Activation of BMP/Smad signaling pathway in Wistar rat bone marrow-derived MSC assessed as increase in smad1 mRNA expression at 0.4 uM incubated for 14 days by RT-qPCR analysis; format: cell-based; details: filed as activator, time 14.0 day
[8] = system: Mus musculus; assay: Anti-osteoporosis activity in OVX-induced osteoporosis ICR mouse model assessed as increase in trabecular number in femur at 20 mg/kg, IG and measured after 12 weeks by micro-CT analysis; format: functional, organism-based
[9] = system: Mus musculus; assay: Anti-osteoporosis activity in OVX-induced osteoporosis ICR mouse model assessed as decrease in trabecular spacing by in femur at 10 mg/kg, ip and measured after 12 weeks by micro-CT analysis relative to control; format: functional; design: scale not given: the % may be the effect or the level left
[10] = system: Mus musculus; assay: Anti-osteoporosis activity in OVX-induced osteoporosis ICR mouse model assessed as increase in BV/TV by measuring fold change in femur at 10 mg/kg, ip and measured after 12 weeks by micro-CT analysis; format: functional
[11] = system: RAW264.7; assay: Inhibition of RANKL-induced osteoclastogenesis in mouse RAW264 cells assessed as number of osteoclast at 5 uM incubated for 5 days by TRAP staining based microscopic analysis (reference value: 95); format: functional; details: time 5 day
[12] = system: MSC; assay: Activation of BMP/Smad signaling pathway in Wistar rat bone marrow-derived MSC assessed as increase in bmp2 mRNA expression at 0.4 uM incubated for 14 days by RT-qPCR analysis; format: cell-based; details: filed as activator, time 14.0 day
[13] = Cytotoxicity against Wistar rat bone marrow-derived MSC assessed as reduction in cell viability at 0.4 to 10 uM after 72 hrs by MTS assay; format: toxicity, cell-based; details: dose 0.4-10 µM
[14] = system: RAW264.7; assay: Inhibition of RANKL-induced osteoclastogenesis in mouse RAW264 cells assessed as number of osteoclast at 10 uM incubated for 5 days by TRAP staining based microscopic analysis (reference value: 95); format: functional; details: time 5 day
[15] = system: Mus musculus; assay: Anti-osteoporosis activity in OVX-induced osteoporosis ICR mouse model assessed as increase in trabecular number by measuring fold change in femur at 10 mg/kg, ip and measured after 12 weeks by micro-CT analysis; format: functional
[16] = Induction of osteogenesis in Wistar rat bone marrow-derived MSC assessed as increase in bone formation by measuring fold change at 0.4 uM measured after 14 days with fresh culture medium replacement for every 3 days by Alizarin red staining based analysis; format: functional; details: time 14 day
[17] = system: RAW264.7; assay: Inhibition of RANK/RANKL/OPG signaling pathway in RANKL-stimulated mouse RAW264.7 cells assessed as increase in OPG protein expression level at 1 uM after 5 days by Western blot analysis; format: cell-based; details: time 5.0 day
[18] = system: MSC; assay: Activation of BMP/Smad signaling pathway in Wistar rat bone marrow-derived MSC assessed as increase in alp mRNA expression at 0.4 uM incubated for 14 days by RT-qPCR analysis; format: cell-based; details: filed as activator, time 14.0 day
[19] = system: MSC; assay: Induction of osteogenesis in Wistar rat bone marrow-derived MSC assessed as increase in increase in calcium nodes at 0.4 uM measured after 14 days with fresh culture medium replacement for every 3 days by Alizarin red staining based analysis; format: functional, cell-based; details: time 14.0 day
[20] = system: MSC; assay: Activation of BMP/Smad signaling pathway in Wistar rat bone marrow-derived MSC assessed as increase in smad4 mRNA expression at 0.4 uM incubated for 14 days by RT-qPCR analysis; format: cell-based; details: filed as activator, time 14.0 day
[21] = system: Mus musculus; assay: Anti-osteoporosis activity in OVX-induced osteoporosis ICR mouse model assessed as increase in bone mineral density by measuring fold change in femur at 10 mg/kg, ip and measured after 12 weeks by micro-CT analysis; format: functional
[22] = system: Mus musculus; assay: Anti-osteoporosis activity in OVX-induced osteoporosis ICR mouse model assessed as decrease in trabecular spacing by in femur at 20 mg/kg, IG and measured after 12 weeks by micro-CT analysis relative to control; format: functional
[23] = system: MSC; assay: Activation of BMP/Smad signaling pathway in Wistar rat bone marrow-derived MSC assessed as increase in smad9 mRNA expression at 0.4 uM incubated for 14 days by RT-qPCR analysis; format: cell-based; details: filed as activator, time 14.0 day
[24] = system: RAW264.7; assay: Inhibition of RANKL-induced osteoclastogenesis in mouse RAW264 cells assessed as number of osteoclast at 1 uM incubated for 5 days by TRAP staining based microscopic analysis (reference value: 95); format: functional; details: time 5 day
[25] = system: Mus musculus; assay: Anti-osteoporosis activity in OVX-induced osteoporosis ICR mouse model assessed as increase in trabecular thickness by measuring fold change in femur at 10 mg/kg, ip and measured after 12 weeks by micro-CT analysis; format: functional
[26] = system: RAW264.7; assay: Inhibition of RANK/RANKL/OPG signaling pathway in mouse RAW264.7 cells assessed as decrease in RANKL-stimulated NFATc-1 protein expression level at 1 uM after 5 days by Western blot analysis; format: cell-based; details: time 5.0 day
[27] = system: RAW264.7; assay: Inhibition of RANKL-induced osteoclastogenesis in mouse RAW264 cells assessed as decrease in number of osteoclast at 1 to 10 uM incubated for 5 days by TRAP staining based microscopic analysis; format: functional, cell-based; details: dose 1-10 µM, time 5.0 day
[28] = system: Mus musculus; assay: Anti-osteoporosis activity in OVX-induced osteoporosis ICR mouse model assessed as increase in trabecular number by measuring fold change in femur at 20 mg/kg, IG and measured after 12 weeks by micro-CT analysis; format: functional
[29] = system: Mus musculus; assay: Anti-osteoporosis activity in OVX-induced osteoporosis ICR mouse model assessed as increase in bone mineral density by measuring fold change in femur at 20 mg/kg, IG and measured after 12 weeks by micro-CT analysis; format: functional
[30] = system: MSC; assay: Induction of osteogenesis in Wistar rat bone marrow-derived MSC assessed as increase in calcium nodes at 1 uM measured after 14 days with fresh culture medium replacement for every 3 days by Alizarin red staining based analysis; format: functional, cell-based; details: time 14.0 day
[31] = system: MSC; assay: Induction of osteogenesis in Wistar rat bone marrow-derived MSC assessed as increase in ALP at 1 uM measured after 1 week with fresh culture medium replacement for every 3 days by ALP staining based analysis; format: functional, cell-based; details: time 1.0 weeks
[32] = Induction of osteogenesis in Wistar rat bone marrow-derived MSC assessed as increase in bone formation by measuring fold change at 1 uM measured after 14 days with fresh culture medium replacement for every 3 days by Alizarin red staining based analysis; format: functional; details: time 14 day
[33] = system: Mus musculus; assay: Anti-osteoporosis activity in OVX-induced osteoporosis ICR mouse model assessed as increase in trabecular thickness by measuring fold change in femur at 20 mg/kg, IG and measured after 12 weeks by micro-CT analysis; format: functional
[34] = Cytotoxicity against Wistar rat bone marrow-derived MSC assessed as inhibition of cell viability at 10 uM after 72 hrs by MTS assay relative to control; format: toxicity, cell-based; details: bone marrow-derived mesenchymal stem cells (MSC), read-out: INH
[35] = Cytotoxicity against Wistar rat bone marrow-derived MSC assessed as reduction in cell viability at 0.4 to 2 uM after 72 hrs by MTS assay; format: toxicity, cell-based; details: dose 0.4-2 µM

In the case of `COc1ccc(-c2coc3c4c(ccc3c2=O)OCN(Cc2ccoc2)C4)cc1`, the Activity [1] is reported as “Active”, the inhibition [2] is reported as “Active” and the “fold change (FC)” value [3] is reported as 2.13. For the same compound, the Activity [4] was “Active”, the inhibition [5] was “Active” and the Activity [6] was “Non-Toxic”. For the same compound, the Activity [7] was “Active”, the Activity [8] was “inactive” and the Activity [9] was 37%. The “fold change (FC)” value [10] was 9.25, the Activity [11] was 24 and the Activity [12] was “Active”. For the same compound, the Activity [13] was “Non-Toxic”, the Activity [14] was 29 and the “fold change (FC)” value [15] was 2.17. The “fold change (FC)” value [16] was 2.3, the inhibition [17] was “Active” and the Activity [18] was “Active”. The Activity [19] was “Active”, the Activity [20] was “Active” and the “fold change (FC)” value [21] was 15.2. For the same compound, the Activity [22] was “inactive”, the Activity [23] was “Active” and the Activity [24] was 30. The “fold change (FC)” value [25] was 1.9 and the inhibition [26] was “Active”.
For `CCCCCCN1COc2ccc3c(=O)c(-c4ccc(OC)cc4)coc3c2C1`, the Activity [13] was “Non-Toxic” and the “fold change (FC)” value [16] was 1.2.
With `CCCCCCCCNCc1c(O)ccc2c(=O)c(-c3ccc(OC)cc3)coc12` the Activity [13] was “Non-Toxic” and the “fold change (FC)” value [16] was 1.1.
For `COc1ccc(-c2coc3c4c(ccc3c2=O)OCN(Cc2ccccc2)C4)cc1`, the Activity [13] was “Non-Toxic” and the “fold change (FC)” value [16] was 1.
With `CCCCN1COc2ccc3c(=O)c(-c4ccc(OC)cc4)coc3c2C1` the inhibition [2] was “inactive”, the “fold change (FC)” value [3] was 2.2 and the Activity [4] was “Active”. The inhibition [5] was “inactive”, the Activity [6] was “Non-Toxic” and the inhibition [27] was “inactive”. For the same compound, the Activity [9] was 43%, the “fold change (FC)” value [10] was 6.47 and the “fold change (FC)” value [28] was 1.42. For the same compound, the “fold change (FC)” value [29] was 3.3, the Activity [13] was “Non-Toxic” and the “fold change (FC)” value [15] was 1.94. The “fold change (FC)” value [16] was 1.9, the inhibition [17] was “inactive” and the Activity [19] was “Active”. For the same compound, the “fold change (FC)” value [21] was 10.3, the Activity [22] was 63% and the “fold change (FC)” value [25] was 1.51. For the same compound, the inhibition [26] was “inactive”.
With `COc1ccc(-c2coc3c4c(ccc3c2=O)OCN(C2CCCCC2)C4)cc1` the Activity [13] was “Non-Toxic” and the “fold change (FC)” value [16] was 0.8.
In the case of `COc1ccc(-c2coc3cc(O)ccc3c2=O)cc1` [FORMONONETIN], the Activity [30] is reported as “Active”, the Activity [31] is reported as “Active” and the “fold change (FC)” value [32] is reported as 1.4. For the same compound, the Activity [24] was 66.
With `CC(C)Oc1ccc2c(=O)c(-c3ccccc3)coc2c1` [IPRIFLAVONE] the “fold change (FC)” value [3] was 2.3, the Activity [8] was “inactive” and the Activity [9] was “inactive”. For the same compound, the “fold change (FC)” value [29] was 3.3, the “fold change (FC)” value [21] was 1.9 and the Activity [22] was “inactive”. The “fold change (FC)” value [33] was 1.17.
For `COc1ccc(-c2coc3c(C=O)c(O)ccc3c2=O)cc1`, the cytotoxicity at 72 h, 10 µM [34] was 15.5%, the Activity [35] was “Non-Toxic” and the “fold change (FC)” value [16] was 1.3.
